Species: Rattus norvegicus
Experiment: DrugMatrix - Regimen: Daily Repeat
Format: toxicity, organism-based, Sprague-Dawley
Design: regimen Daily Repeat, gender Male, age 6-8 weeks
Conditions: in vivo, po, route oral GAVAGE, vehicle .5 % CMC; for ABSOLUTE BASOPHIL / ABSOLUTE EOSINOPHIL / ABSOLUTE LYMPHOCYTE / ABSOLUTE MONOCYTE / ABSOLUTE SEGMENTED NEUTROPHIL / BASOPHIL / EOSINOPHIL / ERYTHROCYTE COUNT / HEMATOCRIT / HEMOGLOBIN / LEUKOCYTE COUNT / LYMPHOCYTE / MEAN CORPUSCULAR HEMOGLOBIN / MEAN CORPUSCULAR HEMOGLOBIN CONCENTRATION / MEAN CORPUSCULAR VOLUME / MONOCYTE / NEUTROPHIL / NUCLEATED RED BLOOD CELLS / PLATELET COUNT: tissue Blood; for ALANINE AMINOTRANSFERASE / ALBUMIN / ALKALINE PHOSPHATASE / ASPARTATE AMINOTRANSFERASE / BLOOD UREA NITROGEN / CARBON DIOXIDE / CHLORIDE / CHOLESTEROL / CREATINE PHOSPHOKINASE / CREATININE / GLUCOSE / LACTATE DEHYDROGENASE / LIPASE / PHOSPHORUS / POTASSIUM / SODIUM / TOTAL BILIRUBIN / TOTAL PROTEIN / URIC ACID: tissue Plasma
[1] = 20 mg/kg, 120 h, dose level Low, time 5 day
[2] = 1600 mg/kg, 72 h, dose level High, time 3 day
[3] = 1600 mg/kg, 120 h, dose level High, time 5 day

For `NC(=O)N1c2ccccc2CC(=O)c2ccccc21` [OXCARBAZEPINE], the “ABSOLUTE BASOPHIL” value [1] was 0 CELLS/uL, the “ABSOLUTE EOSINOPHIL” value [1] was 112 CELLS/uL and the “ABSOLUTE LYMPHOCYTE” value [1] was 14390.67 CELLS/uL. The “ABSOLUTE MONOCYTE” value [1] was 0 CELLS/uL, the “ABSOLUTE SEGMENTED NEUTROPHIL” value [1] was 964 CELLS/uL and the BASOPHIL [1] was 0%. The EOSINOPHIL [1] was 0.67%, the “ERYTHROCYTE COUNT” value [1] was 5.76 x10E6/uL and the HEMATOCRIT [1] was 35.97%. The HEMOGLOBIN [1] was 14.53 G/DL, the “LEUKOCYTE COUNT” value [1] was 15.47 x10E3/uL and the LYMPHOCYTE [1] was 93.33%. The “MEAN CORPUSCULAR HEMOGLOBIN” value [1] was 25.2 pg, the “MEAN CORPUSCULAR HEMOGLOBIN CONCENTRATION” value [1] was 40.4 G/DL and the “MEAN CORPUSCULAR VOLUME” value [1] was 62.37 fL. The MONOCYTE [1] was 0%, the NEUTROPHIL [1] was 6% and the “NUCLEATED RED BLOOD CELLS” value [1] was 0.33 /100WBC. For the same compound, the “PLATELET COUNT” value [1] was 1403.33 x10E3/uL, the “ALANINE AMINOTRANSFERASE” value [1] was 47.67 u/L and the ALBUMIN [1] was 4.37 G/DL. The “ALKALINE PHOSPHATASE” value [1] was 374.67 u/L, the “ASPARTATE AMINOTRANSFERASE” value [1] was 83.33 u/L and the “BLOOD UREA NITROGEN” value [1] was 17 mg/dL. For the same compound, the “CARBON DIOXIDE” value [1] was 26.67 mmol/L, the CHLORIDE [1] was 102.33 MEQ/L and the CHOLESTEROL [1] was 67.67 mg/dL. The “CREATINE PHOSPHOKINASE” value [1] was 246.33 u/L, the CREATININE [1] was 0.16 mg/dL and the GLUCOSE [1] was 163.33 mg/dL. The “LACTATE DEHYDROGENASE” value [1] was 115.33 u/L, the LIPASE [1] was 8.67 u/L and the PHOSPHORUS [1] was 12.83 mg/dL. For the same compound, the POTASSIUM [1] was 6.85 MEQ/L, the SODIUM [1] was 146.7 MEQ/L and the “TOTAL BILIRUBIN” value [1] was 0.17 mg/dL. For the same compound, the “TOTAL PROTEIN” value [1] was 6.17 G/DL, the “URIC ACID” value [1] was 2.23 mg/dL and the “ABSOLUTE BASOPHIL” value [2] was 0 CELLS/uL. For the same compound, the “ABSOLUTE EOSINOPHIL” value [2] was 0 CELLS/uL, the “ABSOLUTE LYMPHOCYTE” value [2] was 14109.67 CELLS/uL and the “ABSOLUTE MONOCYTE” value [2] was 56.33 CELLS/uL. For the same compound, the “ABSOLUTE SEGMENTED NEUTROPHIL” value [2] was 1034 CELLS/uL, the BASOPHIL [2] was 0% and the EOSINOPHIL [2] was 0%. For the same compound, the “ERYTHROCYTE COUNT” value [2] was 6.38 x10E6/uL, the HEMATOCRIT [2] was 39.5% and the HEMOGLOBIN [2] was 15.47 G/DL. For the same compound, the “LEUKOCYTE COUNT” value [2] was 15.2 x10E3/uL, the LYMPHOCYTE [2] was 93.33% and the “MEAN CORPUSCULAR HEMOGLOBIN” value [2] was 24.27 pg. The “MEAN CORPUSCULAR HEMOGLOBIN CONCENTRATION” value [2] was 39.2 G/DL, the “MEAN CORPUSCULAR VOLUME” value [2] was 61.93 fL and the MONOCYTE [2] was 0.33%. For the same compound, the NEUTROPHIL [2] was 6.33%, the “NUCLEATED RED BLOOD CELLS” value [2] was 0 /100WBC and the “PLATELET COUNT” value [2] was 1432 x10E3/uL. The “ALANINE AMINOTRANSFERASE” value [2] was 82.67 u/L, the ALBUMIN [2] was 4.43 G/DL and the “ALKALINE PHOSPHATASE” value [2] was 485.33 u/L. For the same compound, the “ASPARTATE AMINOTRANSFERASE” value [2] was 91 u/L, the “BLOOD UREA NITROGEN” value [2] was 16.33 mg/dL and the “CARBON DIOXIDE” value [2] was 31 mmol/L. For the same compound, the CHLORIDE [2] was 101 MEQ/L, the CHOLESTEROL [2] was 73 mg/dL and the “CREATINE PHOSPHOKINASE” value [2] was 195 u/L. For the same compound, the CREATININE [2] was 0.2 mg/dL, the GLUCOSE [2] was 116 mg/dL and the “LACTATE DEHYDROGENASE” value [2] was 266 u/L. For the same compound, the LIPASE [2] was 11 u/L, the PHOSPHORUS [2] was 10.13 mg/dL and the POTASSIUM [2] was 6.83 MEQ/L. For the same compound, the SODIUM [2] was 145.67 MEQ/L, the “TOTAL BILIRUBIN” value [2] was 0.17 mg/dL and the “TOTAL PROTEIN” value [2] was 5.8 G/DL. For the same compound, the “URIC ACID” value [2] was 1.43 mg/dL, the “ABSOLUTE BASOPHIL” value [3] was 0 CELLS/uL and the “ABSOLUTE EOSINOPHIL” value [3] was 0 CELLS/uL. For the same compound, the “ABSOLUTE LYMPHOCYTE” value [3] was 15797.33 CELLS/uL, the “ABSOLUTE MONOCYTE” value [3] was 212.67 CELLS/uL and the “ABSOLUTE SEGMENTED NEUTROPHIL” value [3] was 2156.67 CELLS/uL. For the same compound, the BASOPHIL [3] was 0%, the EOSINOPHIL [3] was 0% and the “ERYTHROCYTE COUNT” value [3] was 5.81 x10E6/uL. The HEMATOCRIT [3] was 36.23%, the HEMOGLOBIN [3] was 14.8 G/DL and the “LEUKOCYTE COUNT” value [3] was 18.17 x10E3/uL. For the same compound, the LYMPHOCYTE [3] was 87.33%, the “MEAN CORPUSCULAR HEMOGLOBIN” value [3] was 25.47 pg and the “MEAN CORPUSCULAR HEMOGLOBIN CONCENTRATION” value [3] was 40.83 G/DL. The “MEAN CORPUSCULAR VOLUME” value [3] was 62.33 fL, the MONOCYTE [3] was 1% and the NEUTROPHIL [3] was 11.67%. The “NUCLEATED RED BLOOD CELLS” value [3] was 0 /100WBC, the “PLATELET COUNT” value [3] was 1349.67 x10E3/uL and the “ALANINE AMINOTRANSFERASE” value [3] was 60.67 u/L. The ALBUMIN [3] was 4.5 G/DL, the “ALKALINE PHOSPHATASE” value [3] was 338.67 u/L and the “ASPARTATE AMINOTRANSFERASE” value [3] was 86.33 u/L. The “BLOOD UREA NITROGEN” value [3] was 17.33 mg/dL, the “CARBON DIOXIDE” value [3] was 23.33 mmol/L and the CHLORIDE [3] was 99 MEQ/L. For the same compound, the CHOLESTEROL [3] was 93.67 mg/dL, the “CREATINE PHOSPHOKINASE” value [3] was 336.33 u/L and the CREATININE [3] was 0.28 mg/dL. The GLUCOSE [3] was 123 mg/dL, the “LACTATE DEHYDROGENASE” value [3] was 512.67 u/L and the LIPASE [3] was 13 u/L. It also gave a PHOSPHORUS [3] of 13.6 mg/dL, a POTASSIUM [3] of 7.68 MEQ/L and an SODIUM [3] of 142.17 MEQ/L. The “TOTAL BILIRUBIN” value [3] was 0.23 mg/dL, the “TOTAL PROTEIN” value [3] was 6.43 G/DL and the “URIC ACID” value [3] was 2.07 mg/dL.

From ChEMBL document CHEMBL3885881, “DrugMatrix”
